From patent US10947254B2, “Methods for treating ulcerative colitis using 3-((1R,3s,5S)-3-((7-((5-methyl-1H-pyrazol-3-yl)amino)-1,6-naphthyridin-5-yl)amino)-8-azabicyclo[3.2.1]octan-8-yl)propanenitrile” (priority 2015, dated 2021)

Experiments:
[1] = tested on: oxazolone-induced colitis; experiment: Mouse model of oxazolone-induced colitis; format: in vivo, BALB/C mice; settings: mice, PO, 1, 3, and/or 10 mg/kg BID (doses up to 10 mg/kg BID)
Method: Assay 7: Mouse Model of Oxazalone-Induced Colitis
Oxazolone-induced colitis is an experimental model that has a histological resemblance to human ulcerative colitis (Heller et al. Immunology, 2002, 17, 629-638). Adult BALB/C mice from Harlan were used in the assay. On day 1, animals were lightly anesthetized with isoflurane and the hairs between the shoulder were carefully removed before oxazolone (4%, 150 μL, 4:1 acetone:olive oil formulation) or vehicle solution was slowly applied for skin sensitization. Seven days after skin sensitization, the mice were fasted overnight, anesthetized with isoflurane inhalation, and a 1 mL syringe equipped with a 3.5-F catheter, filled with oxazolone solution, was inserted carefully about 4 cm into the colon of the mouse. Following insertion, 50 μL of the oxazolone solution (1%, 1:1 ethanol:water formulation) was injected very slowly (over 30 sec using an injection pump) into the colon. The catheter was removed and the mice were held vertically (head down) for 2 min to ensure that the entire oxazolone solution remained inside the colon. Drug treatment (PO, BID or TID) or vehicle was initiated a day prior to the oxazolone intrarectal (IR) challenge. Two-day post oxazolone intrarectal challenge, the Disease Activity Index (DAI) was assessed by treatment-blinded experimenters for each mouse according to the criteria score: stool consistency score (0, normal; 2, loose; 4, diarrhea), gross bleeding score (0, absence; 2, blood tinged; 4, presence), and weight loss score (0, none; 1, 1%-5%; 2, 5%-10%; 3, 10%-20%; 4, more than 20%); DAI=average of (stool consistency score+gross bleeding score+weight loss score).
Selected compounds of the invention were tested in the assay. Efficacy in the model is evidenced by a decrease in DAI score as compared with the score from vehicle treated animals.

[2] = tested on: IL-13 induced STAT6 phosphorylation in BEAS-2B human lung epithelial cells; settings: BEAS-2B cells
[3] = tested on: IL-4 induced STAT6 phosphorylation in THP-1 human monocytic cells; settings: THP-1 cells

Row | SMILES | decrease in DAI score as compared with vehicle treated animals [1] | BEAS2B pIC50 [2] | THP-1 IL4 pIC50 [3]
1 | Cc1cc(Nc2cc3ncccc3c(N[C@@H]3C[C@H]4CCC[C@@H](C3)N4S(=O)(=O)c3cccnc3)n2)n[nH]1 [Example 8, N^7-(5-methyl-1H-pyrazol-3-yl)-N^5-((1R,3s,5S)-9-(pyridin-3-ylsulfonyl)-9-azabicyclo[3.3.1]nonan-3-yl)-1,6-naphthyridine-5,7-diamine] | statistically significant decrease |  | 
2 | Cc1cc(Nc2cc3ncccc3c(N[C@@H]3C[C@H]4CCC[C@@H](C3)N4S(=O)(=O)C3CC3)n2)n[nH]1 [Example 4-18] | did not exhibit a statistically significant decrease | A (A represents a pEC50 value ≥7.5 (EC50≤32 nM)) | A (A represents a pEC50 value ≥7.5 (EC50≤32 nM))
3 | Cc1cc(Nc2cc3ncccc3c(N[C@@H]3C[C@H]4CCC[C@@H](C3)N4S(=O)(=O)c3ccccc3)n2)n[nH]1 [Example 9, N^7-(5-methyl-1H-pyrazol-3-yl)-N^5-((1R,3s,5S)-9-(phenylsulfonyl)-9-azabicyclo[3.3.1]nonan-3-yl)-1,6-naphthyridine-5,7-diamine] | did not exhibit a statistically significant decrease |  | 
4 | Cc1cc(Nc2cc3ncccc3c(N[C@@H]3C[C@H]4CC[C@@H](C3)N4S(=O)(=O)c3cccnc3)n2)n[nH]1 [Example 3, N^7-(5-methyl-1H-pyrazol-3-yl)-N^5-((1R,3s,5S)-8-(pyridin-3-ylsulfonyl)-8-azabicyclo[3.2.1]octan-3-yl)-1,6-naphthyridine-5,7-diamine] | statistically significant decrease |  | 
5 | Cc1cc(Nc2cc3ncccc3c(N[C@@H]3C[C@H]4CC[C@@H](C3)N4S(=O)(=O)C3CC3)n2)n[nH]1 [Example 4-4] | did not exhibit a statistically significant decrease |  | 
6 | Cc1cc(Nc2cc3nc(CO)ccc3c(N[C@@H]3C[C@H]4CC[C@@H](C3)N4C(=O)OCC(C)C)n2)n[nH]1 [Example 12, Isobutyl (1R,3s,5S)-3-((2-(hydroxymethyl)-7-((5-methyl-1H-pyrazol-3-yl)amino)-1,6-naphthyridin-5-yl)amino)-8-azabicyclo[3.2.1]octane-8-carboxylate] | statistically significant decrease |  | 
7 | Cc1cc(Nc2cc3ncccc3c(N[C@@H]3C[C@H]4CC[C@@H](C3)N4CCF)n2)n[nH]1 [Example 2, N^5-((1R,3s,5S)-8-(2-fluoroethyl)-8-azabicyclo[3.2.1]octan-3-yl)-N^7-(5-methyl-1H-pyrazol-3-yl)-1,6-naphthyridine-5,7-diamine] | statistically significant decrease |  | 
8 | Cc1cc(Nc2cc3ncccc3c(N[C@@H]3C[C@H]4CC[C@@H](C3)N4C(=O)C(F)F)n2)n[nH]1 [Example 5, 2,2-difluoro-1-((1R,3s,5S)-3-((7-((5-methyl-1H-pyrazol-3-yl)amino)-1,6-naphthyridin-5-yl)amino)-8-azabicyclo[3.2.1]octan-8-yl)ethan-1-one] | statistically significant decrease |  | 
9 | Cc1cc(Nc2cc3ncccc3c(N[C@@H]3C[C@H]4CCC[C@@H](C3)N4S(=O)(=O)N3CC(C#N)C3)n2)n[nH]1 [Example 11] | did not exhibit a statistically significant decrease |  | 
10 | CCC(=O)N1[C@@H]2CC[C@H]1C[C@H](Nc1nc(Nc3cc(C)[nH]n3)cc3ncccc13)C2 [Example 2-1] | did not exhibit a statistically significant decrease |  | 
11 | Cc1cc(Nc2cc3ncccc3c(N[C@@H]3C[C@H]4CCC[C@@H](C3)N4C(=O)CN(C)C)n2)n[nH]1 [Example 4, 2-(Dimethylamino)-1-((1R,3s,5S)-3-((7-((5-methyl-1H-pyrazol-3-yl)amino)-1,6-naphthyridin-5-yl)amino)-9-azabicyclo[3.3.1]nonan-9-yl)ethan-1-one] | statistically significant decrease |  | 
12 | Cc1cc(Nc2cc3nc(CN4CCOCC4)ccc3c(N[C@@H]3C[C@H]4CCC[C@@H](C3)N4S(=O)(=O)c3cncc(F)c3)n2)n[nH]1 [Example 5-30] |  | A (A represents a pEC50 value ≥7.5 (EC50≤32 nM)) | A (A represents a pEC50 value ≥7.5 (EC50≤32 nM))
13 | Cc1cc(Nc2cc3ncccc3c(N[C@@H]3C[C@H]4CCC[C@@H](C3)N4C(=O)C(C)(C)CO)n2)n[nH]1 [Example 2-22] | did not exhibit a statistically significant decrease | A (A represents a pEC50 value ≥7.5 (EC50≤32 nM)) | 
14 | CCC(C)C(=O)N1C2CCC1CC(Nc1nc(Nc3cc(C)[nH]n3)cc3ncccc13)C2 (stereo not drawn) [Example 2-6] | did not exhibit a statistically significant decrease | A (A represents a pEC50 value ≥7.5 (EC50≤32 nM)) | 
15 | Cc1cc(Nc2cc3ncccc3c(N[C@@H]3C[C@H]4CCC[C@@H](C3)N4CCCF)n2)n[nH]1 [Example 1-40] |  | A (A represents a pEC50 value ≥7.5 (EC50≤32 nM)) | A (A represents a pEC50 value ≥7.5 (EC50≤32 nM))
16 | COc1cnc2cc(Nc3cc(C)[nH]n3)nc(N[C@@H]3C[C@H]4CCC[C@@H](C3)N4Cc3ccncc3)c2c1 [Example 6-28] |  | A (A represents a pEC50 value ≥7.5 (EC50≤32 nM)) | A (A represents a pEC50 value ≥7.5 (EC50≤32 nM))
17 | Cc1cc(Nc2nc(N[C@@H]3C[C@H]4CCC[C@@H](C3)N4Cc3ccncc3)c3cccnc3c2F)n[nH]1 [Example 8-14] |  | A (A represents a pEC50 value ≥7.5 (EC50≤32 nM)) | A (A represents a pEC50 value ≥7.5 (EC50≤32 nM))
18 | CCOCC(=O)N1[C@@H]2CCC[C@H]1C[C@H](Nc1nc(Nc3cc(C)[nH]n3)cc3ncccc13)C2 [Example 2-17] | did not exhibit a statistically significant decrease | A (A represents a pEC50 value ≥7.5 (EC50≤32 nM)) | 
19 | CCS(=O)(=O)N1[C@@H]2CC[C@H]1C[C@H](Nc1nc(Nc3cc(C)[nH]n3)cc3ncccc13)C2 [Example 7, N^5-((1R,3s,5S)-8-(ethylsulfonyl)-8-azabicyclo[3.2.1]octan-3-yl)-N^7-(5-methyl-1H-pyrazol-3-yl)-1,6-naphthyridine-5,7-diamine] | did not exhibit a statistically significant decrease |  | 
20 | COc1ccc2c(N[C@@H]3C[C@H]4CCC[C@@H](C3)N4CCC#N)nc(Nc3cc(C)[nH]n3)cc2n1 [Example 5-10] |  | A (A represents a pEC50 value ≥7.5 (EC50≤32 nM)) | A (A represents a pEC50 value ≥7.5 (EC50≤32 nM))
21 | Cc1cc(Nc2cc3ncccc3c(NC3CC4CCCC(C3)N4C(=O)C(C)O)n2)n[nH]1 (stereo not drawn) [Example 2-16] | did not exhibit a statistically significant decrease |  | 
22 | COCCS(=O)(=O)N1[C@@H]2CC[C@H]1C[C@H](Nc1nc(Nc3cc(C)[nH]n3)cc3ncccc13)C2 [Example 6, N^5-((1R,3s,5S)-8-((2-methoxyethyl)sulfonyl)-8-azabicyclo[3.2.1]octan-3-yl)-N^7-(5-methyl-1H-pyrazol-3-yl)-1,6-naphthyridine-5,7-diamine] | statistically significant decrease |  | 
23 | Cc1cc(Nc2cc3nc(CO)ccc3c(N[C@@H]3C[C@H]4CC[C@@H](C3)N4CCC#N)n2)n[nH]1 [Example 5-11] | did not exhibit a statistically significant decrease |  | A (A represents a pEC50 value ≥7.5 (EC50≤32 nM))
24 | COc1cnc2cc(Nc3cc(C)[nH]n3)nc(N[C@@H]3C[C@H]4CC[C@@H](C3)N4CCC(F)(F)F)c2c1 [Example 6-15] |  | A (A represents a pEC50 value ≥7.5 (EC50≤32 nM)) | A (A represents a pEC50 value ≥7.5 (EC50≤32 nM))
25 | Cc1cc(Nc2nc(N[C@@H]3C[C@H]4CCC[C@@H](C3)N4S(=O)(=O)c3cccnc3)c3cccnc3c2F)n[nH]1 [Example 8-12] |  | A (A represents a pEC50 value ≥7.5 (EC50≤32 nM)) | A (A represents a pEC50 value ≥7.5 (EC50≤32 nM))
26 | Cc1cc(Nc2cc3ncccc3c(N[C@@H]3C[C@H]4CC[C@@H](C3)N4S(=O)(=O)N3CC(C#N)C3)n2)n[nH]1 [Example 13] | did not exhibit a statistically significant decrease |  | 
27 | Cc1cc(Nc2cc3ncccc3c(N[C@@H]3C[C@H]4CC[C@@H](C3)N4S(=O)(=O)Cc3ccccc3)n2)n[nH]1 [Example 4-13] | did not exhibit a statistically significant decrease | A (A represents a pEC50 value ≥7.5 (EC50≤32 nM)) | 
28 | Cc1cc(Nc2cc3ncccc3c(N[C@@H]3C[C@H]4CCC[C@@H](C3)N4CC(=O)N(C)C)n2)n[nH]1 [Example 1-38] | statistically significant decrease |  | 
